Assay results published in patent US20050192339A1, “Compounds” (priority 2003, published 2005).
Counter-ions that a name gives are not always drawn.

Experiments:
human MCH1R receptor [1] = biological target: T1, human MCH1R receptor (Homo sapiens, UniProt Q99705); assay: MCH1R receptor binding by SPA ([125I]-MCH displacement, CHO-K1 hMCH1R membranes); conditions: 0.2 nM [125I]-MCH, membranes of CHO-K1 cells expressing hMCH1 receptor, room temperature; Ki calculated from IC50 (Cheng-Prusoff)
T1 construct: host or cells: CHO-K1
Procedure: The compounds according to the invention were evaluated for their binding to the human MCH1R receptor by the following method:
Compounds: MCH peptide was purchased from Phoenix pharmaceuticals. (Phe^13, [^125I]Tyr^19 Melanine-Concentrating Hormone (human, mouse, rat) ([^125I]-MCH) was obtained from NEN life Science Products. Inc. Boston, Mass. Wheat germ agglutinine SPA beads (RPNQ 0001) were obtained from Amersham-Pharmacia Biotech. All other reagents used are of highest purity from different resources available. Protein Kits, Micro BCA™ Protein Assay Reagent Kit (Cat No. 23235) were purchased from Piece, Rockford, Ill., USA.
CHO-K1 cells expressing hMCH1 receptor were purchased from Euroscreen. CHO-K1 hMCHRI (Euroscreen, Brussels, Belgium, # ES-370-C) were cultivated in Nutrient mixture Ham's F-12 with Glutamax I (Gibco-BRL #31765-027) supplemented with 10% heat-inactivated foetal calf serum (FCS, Gibco-BRL #10108-165) and 400 μg/ml geniticin (Gibco-BRL #1140-0359). The cells were sub-cultivated twice weekly with split ratio=1:20-1:30. For membrane preparation the cells were cultured in […] and the cells were harvested when 90% confluent.
When the cells reached more than 90% confluence, dishes (500 cm^2) were rinsed twice with 20 ml PBS (Ca^2+ and Mg^2+ free). Buffer A, which contains Tris.HCl (15), MgCl2.6H2O (2), EDTA (0.3), EGTA (1) in mM with pH 7.5, 25 ml was added and cells were suspended using a window scraper. The cells were collected in 50 ml Falcon tube pre-cooled on ice and then centrifuged for 3 minutes at 1500 g at 4° C. […]
The radio labeled [^125I]-MCH was diluted with cold MCH in ratio 1:3. […] The results were calculated using Excel program and the curves were drawn using a program GraphPad Prism.
For screening of the substances the amount of the beads used was 0.25 mg/well and the amount of the membrane protein was 4 μg/well 0.2 nM of labeled MCH was used. […] The samples were counted using Microbeta counter (Wallac Trilux 1450 Micro beta counter, Wallac, Finland) for 2 minutes and the results were calculated by using the computer program Activity Base. […]

human MCH1R receptor [2] = biological target: T1, human MCH1R receptor; conditions: from Hervieu et al., Eur J Neurosci 2000; read-out: Kd of MCH binding reported in literature; cited from earlier work

T1 sequence (Q99705 whole entry): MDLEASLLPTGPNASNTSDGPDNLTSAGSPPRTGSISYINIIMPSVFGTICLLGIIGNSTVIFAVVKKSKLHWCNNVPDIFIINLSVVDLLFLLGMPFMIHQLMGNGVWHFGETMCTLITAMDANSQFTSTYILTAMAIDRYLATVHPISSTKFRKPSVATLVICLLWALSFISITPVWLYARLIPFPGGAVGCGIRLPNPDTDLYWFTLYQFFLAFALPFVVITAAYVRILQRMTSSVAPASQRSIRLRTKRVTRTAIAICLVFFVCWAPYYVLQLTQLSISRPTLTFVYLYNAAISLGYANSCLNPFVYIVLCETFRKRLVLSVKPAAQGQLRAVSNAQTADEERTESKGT

| Molecule | Ki (human MCH1R receptor [1]) [nM] | Kd (human MCH1R receptor [2]) [nM] |
| --- | --- | --- |
| COc1ccc([C@@]23CC[C@@H](NC(=S)NCc4ccccc4)C[C@@H]2N(CCCc2ccccc2)CC3)cc1OC (relative stereo) [Example 23, N-benzyl-N′-[(3aS*,6R*,7aS*)-3a-(3,4-dimethoxyphenyl)-1-(3-phenylpropyl)octahydro-1H-indol-6-yl]thiourea] | 43 | – |
| C=CCNC(=O)N[C@@H]1CC[C@@]2(c3ccc(OC)c(OC)c3)CCN(C)[C@H]2C1 (relative stereo) [Example 58, N-allyl-N′-[(3aS*,6R*7aS*)-3a-(3,4-dimethoxyphenyl)-1-methyloctahydro-1H-indol-6-yl]urea trifluoroacetate] | 907 | – |
| COc1ccc([C@@]23CC[C@@H](NC(=O)NCc4ccc(Br)cc4)C[C@@H]2N(C)CC3)cc1OC (relative stereo) [Example 69, N-(4-bromobenzyl)-N′-[(3aS*,6R*,7aS*)-3a-(3,4-dimethoxyphenyl)-1-methyloctahydro-1H-indol-6-yl]urea trifluoroacetate] | 227 | – |
| [^125I]-MCH | – | 1.2 |
